Molecular target: T1, GST-GK, derived from human liver GK (Homo sapiens, UniProt P35557)
T1 sequence (P35557 1-466 isoform P35557-2): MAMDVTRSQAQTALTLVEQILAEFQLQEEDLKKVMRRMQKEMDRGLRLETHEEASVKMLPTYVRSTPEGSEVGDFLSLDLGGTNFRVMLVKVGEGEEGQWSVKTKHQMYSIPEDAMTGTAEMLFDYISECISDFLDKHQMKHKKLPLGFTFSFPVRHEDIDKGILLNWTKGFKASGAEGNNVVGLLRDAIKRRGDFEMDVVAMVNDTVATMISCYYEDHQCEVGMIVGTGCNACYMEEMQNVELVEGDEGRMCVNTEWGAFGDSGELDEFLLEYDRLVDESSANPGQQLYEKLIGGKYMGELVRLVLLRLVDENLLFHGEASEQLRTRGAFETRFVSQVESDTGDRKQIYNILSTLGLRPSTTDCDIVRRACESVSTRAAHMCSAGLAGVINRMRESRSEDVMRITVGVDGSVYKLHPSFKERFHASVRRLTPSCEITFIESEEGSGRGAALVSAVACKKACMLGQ
Assay: In vitro GK activity: G6P production by GST-GK coupled to NADPH generation with G6PDH
Format: biochemical
Conditions: 5 mM D-Glc, 30° C., OD 340 nm over 10 min
Protocol: Using a protocol similar to that described in WO2000/58293, GK activity may be assayed by coupling the production of G6P by GST-GK to the generation of NADPH with G6PDH as the coupling enzyme.
The GK assay is performed at 30° C. in a flat bottom 96-well assay plate from Costar with a final incubation volume of 100 μL. The assay buffer contains: 25 mM Hepes buffer (pH 7.4), 12.5 mM KCl, 5 mM D-Glc, 5 mM ATP, 6.25 mM NADP, 25 mM MgCl2, 1 mM dithiothreitol, test compound or 5% DMSO, 3.0 unit/mL G6PDH, and 0.4 μL/mL GST-GK, derived from human liver GK. ATP, G6PDH, and NADP may be purchased from Roche Diagnostics. The other reagents are >98% pure and may be purchased from Kanto Chemicals. The test compounds are dissolved in DMSO, before being added to the assay buffer without ATP. This mix is preincubated in the temperature controlled chamber of a SPECTRAmax 250 microplate spectrophotometer (Molecular Devices Corporation, Sunnyvale, Calif.) for 10 min, then the reaction started by the addition of 10 μL ATP solution.
After starting the reaction, the increase in optical density (OD) at 340 nm is monitored over a 10 min incubation period as a measure of GK activity. […] The compound concentrations that produced a 50% increase in GK activity (i.e. FA1.5) are calculated. […]

O=C1CC[C@H](C[C@@H](C(=O)Nc2ncc(F)s2)c2ccc(S(=O)(=O)C3CC3)cc2)C1 [Example 7, 2(R)-2-(4-Cyclopropanesulfonylphenyl)-N-(5-fluorothiazol-2-yl)-3-((R)-3-oxocyclopentyl)propionamide]
maximum activation of GK: greater than 4 fold | EC50 (read-out: EC50 (concentration of test compound which produces 50% activation)): < 0.5 µM

From US20080242869A1, “Tri(Cyclo) Substituted Amide Compounds” (priority 2004, published 2008)
